Laboratory results reported in a melting point compilation (Tetko et al.; mined from patent text by program, amines drawn as free bases though some values may be those of a salt).

Row | melting point [°C] | Structure (SMILES)
1 | 74 | COC(=O)Cc1ccc(CNC(=O)C2Cc3ccccc3N2S(=O)(=O)c2ccc(-c3cccc(C(F)(F)F)c3)cc2)cc1 (stereo not drawn)
2 | 181 to 183 | CC(=O)C(=NNc1ccc([N+](=O)[O-])cc1)Sc1ccc(Cl)cc1
3 | 111 to 122 | CC(C)C[C@H](NC(=O)c1c(F)cccc1F)C(=O)N[C@@H](C(C)C)[C@@H](O)c1c(-c2ccccc2)c1=O
4 | 199 to 200 | COC(=O)CCCOc1ccc2c(c1OC)N=C(C=C(O)c1cccnc1)N1CCN=C21
5 | > 250 | O=C(O)c1cnn2c(C(F)(F)F)cc(-c3ccc(C(F)(F)F)cc3)cc12
6 | 231 to 232 | CC(=O)c1c(-c2cccs2)[nH]c(-c2ccncc2)c1C
7 | 156 to 157 | O=C(Nc1cccc(C(F)(F)F)c1F)c1ccccc1[N+](=O)[O-]
8 | 100 | COC(C)=C(Cl)C(=O)Nc1ccccc1
9 | 163 to 165 | CCOC(=O)n1nc2cc(Cl)ccc2c1N
10 | 184 to 186 | CC(C)COc1ccc(C(=O)O)cc1[N+](=O)[O-]
11 | 222 to 223 | NC(=O)c1sccc1SSc1ccsc1C(N)=O
12 | 68 to 70 | CCCCCCCCCCOc1cc(OCCCOc2ccc(OCc3ccccc3)cc2)cc(C(=O)OC)c1
13 | 120 to 121 | CC(=O)NCc1ccc(CN2CCN(c3ncccn3)CC2)cc1
14 | 126 to 128 | Cc1ccccc1C(=O)NC(NC(=NC#N)Nc1cccnc1)C(Cl)(Cl)Cl (stereo not drawn)
15 | 43 to 45 | O=C(OCCCl)C(O)c1ccccc1 (stereo not drawn)
16 | 211 to 212 | Oc1cccc(CCc2cc(-c3ccccc3)n(-c3ccccc3)n2)c1
17 | 103 to 104 | Cc1ccc(C(=O)N2CCOCC2)c(Nc2ccc3cn[nH]c3c2)n1
18 | 261 to 263 | Cc1nc(-c2cccc3ccccc23)n2cn[nH]c(=O)c12
19 | 140 | CCOC(=O)C1=C(C)NC(N=CN(C)C)=C(C(=O)OCC)C1c1ccccc1Cl (stereo not drawn)
20 | 158 to 161 | COc1ccc2c(c1)C(=O)N(c1ccc3ccn(C)c3c1)C2

Row | melting point [°C] | Structure (SMILES)
21 | 161 to 163 | O=C1Cc2c(OCCNCc3ccccc3)ccc(Cl)c2N1
22 | 87 to 89 | C=CC(=O)OCCCNC(=O)CCc1cc(-n2nc3ccccc3n2)c(O)c(C(C)(C)C)c1
23 | 228 to 229 | C/C(=C\C(=O)NCc1cccnc1)c1ccc(OCC(=O)O)cc1
24 | 176 to 179 | O=C(/C=C/c1ccc(C(F)(F)F)cc1)Nc1ccc2c(c1)NCC(CO)C2 (stereo not drawn)
25 | 164 to 166 | COCc1cccc2oc(C(=O)O)c(C)c12
26 | 51 to 55 | CN(Cc1ccc2c(Br)c(OCC#N)ccc2c1)C(=O)c1oc2ccccc2c1CCc1ccccc1
27 | 150 to 152 | CCCOC(=O)C1=C(C)NC(C#N)=C(C(=O)OC)C1c1ccccc1C#N (stereo not drawn)
28 | 182 to 187 | N[C@@H](CC(=O)c1ccc2oc3ccccc3c2c1)C(=O)O
29 | 131 to 140 | NC(=O)N(CC(=O)OCCCCCCOC(=O)CN(C(N)=O)c1ccccc1)c1ccccc1
30 | 109 to 111 | CN1c2cscc2C(=O)N(CCN2CCOCC2)c2ccccc21
31 | 212 to 213 | CC1(C)OC(=O)C(=C(Nc2ccccc2Br)N2CCOCC2)C(=O)O1
32 | 85 to 89 | CNCC1Cc2cc(F)cc(-c3cccc(OC)c3OC)c2O1 (stereo not drawn)
33 | 180 to 182 | CCOc1ccc(C(=O)Nc2ccccc2NC(=O)c2cccc(C(N)=NO)c2)cc1
34 | 108 to 112 | O=C(CC1CCCCC1=O)c1ccc(-c2ccccc2)cc1 (stereo not drawn)
35 | 169 to 170 | CCC(CC)N(O)C(=O)Nc1ccc([N+](=O)[O-])cc1
36 | 131 | CCCC(=O)Nc1cc(C(=O)NC2CCN(C(C)CC(C(=O)N(C)C)(c3ccccc3)c3ccccc3)CC2OC)c(OC)cc1Cl (stereo not drawn)
37 | 212 | CC(C)(C)NCC(O)COc1ccc(C(=O)Nc2cccc3[nH]ccc23)cc1 (stereo not drawn)
38 | 118 to 125 | O=C1NC(=O)C(c2cn(CCCO)c3ccc(F)cc23)=C1c1cccc(NCC(O)CO)c1 (stereo not drawn)
39 | 244 to 246 | Cc1[nH]c2ccccc2c1C[C@@H](N)C(=O)O
40 | 221 | N#Cc1c(N2CCN(C(=O)c3ccco3)CC2)c2cc(Cl)ccc2n(Cc2ccccc2)c1=O

Row | melting point [°C] | Structure (SMILES)
41 | 118 to 119 | Cc1ccccc1C(=O)Cc1ccncc1
42 | 193 to 194 | CS(=O)(=O)c1ccc(N2CCC3(CC2)Nc2cc(Cl)ccc2C(=O)O3)cc1
43 | 146 to 148 | COc1ccc(CCNc2nccc(-c3cccc(NC(C)=O)c3)n2)cc1OC
44 | 88.4 to 89.1 | NS(=O)(=O)c1cccc(C(=O)C(F)(F)F)c1
45 | 74 | Cc1cc(-c2cccc3c2C(=O)OC(C)(C)O3)on1
46 | 148 to 150 | CC(C)(C)OC(=O)NC(C)(C(=O)O)c1nc2ccccc2s1 (stereo not drawn)
47 | 205 | CCCCc1cc(OCCc2ccc(C(=O)O)cc2)c2ccccc2n1
48 | 118 to 120 | Cn1nc(C#Cc2ccccc2)ccc1=O
49 | 156 to 158 | CCCc1c(OCCC2Cc3cc(C(=O)CCC(=O)O)ccc3O2)ccc(C(C)=O)c1O (stereo not drawn)
50 | 148 to 149 | O=C1CCCC(=O)C1c1ccccc1Cl
51 | 72 to 80 | O=C(COc1cccc(C(F)(F)F)c1)N[C@@H](Cc1ccccc1)C(=O)CSCc1ccco1
52 | 206 to 208 | Cc1cc(Nc2ncnc3ccc(-c4ccoc4)cc23)ccc1OCc1ccccn1
53 | 287 to 288 | CC(=O)Nc1nc2c(s1)-c1c(c(-c3c[nH]cn3)nn1-c1ccccc1Cl)CC2
54 | 185 to 187 | CCC(=O)Nc1ncc(Sc2ccc(N)cc2)s1
55 | 98 to 100 | CCOC(=O)c1csc(-c2ccc3cc(C(=O)OCc4ccccc4)c(C45CC6CC(CC(C6)C4)C5)cc3c2)c1
56 | 98 to 100 | CCCCCCCCCCCCC1=C(Br)C(=O)c2ccccc2C1=O
57 | 157 to 159 | O=Cc1ccc2c(c1)OC(c1ccccc1)(c1ccccc1)O2
58 | 123 to 124 | CCCc1nn(-c2ccc(C(F)(F)F)cn2)cc1CCCOc1nn(-c2ccccc2)cc1CC(=O)O
59 | 169 to 170 | COC(=O)N1CC[C@H](NC(C)=O)C[C@H]1Cc1ccc(Cl)cc1 (relative stereo)
60 | 187 | O=C1Nc2ncccc2CN1C1CCN(Cc2ccccc2)CC1

More lines, now with the values behind:

Row | Structure (SMILES) | melting point [°C]
61 | CCCCNC(=O)[C@@H](C[C@H](O)[C@H](CC1CCCCC1)NC(=O)[C@H](Cc1cscn1)NC(=O)[C@@H](CC(=O)N1CCOCC1)Cc1ccccc1)C(C)(C)O | 92 to 95
62 | CCCSc1ccc(C(=O)C(=O)OCC)[nH]1 | 34
63 | COCCCn1c(=O)[nH]c2ncc(-c3ccc(O)cc3)nc21 | 208 to 210
64 | CCOC(=O)c1sc(C)nc1S | 62 to 66
65 | CN(Cc1ccco1)C1=N/C(=C\c2c[nH]c3ncc(Cl)cc23)C(=O)N1 | 315
66 | O=C1CNC(c2ccc([N+](=O)[O-])cc2)=NN1 | 284 to 286
67 | CC1=C(c2cc(C)no2)C(=O)CCC1 | 104 to 105
68 | COc1c2c(nn1-c1ccc(Cl)cc1F)CCCC2 | 100 to 102
69 | Cc1ccc(C)n1-c1cc(F)c(C2(O)CCSCC2)c(F)c1 | 125 to 126
70 | C=C(C)c1cc(Br)c(Oc2nc(C)nc3c2nnn3C(CCC)CCC)c(OC)c1 | 110 to 115
71 | CNC(=C[N+](=O)[O-])NCCCCCCCCCCCCNC(C[N+](=O)[O-])NCCSCc1ccc(CN(C)C)o1 (stereo not drawn) | 78 to 80
72 | CCOC(=O)OC1=C(c2cc(C)ccc2C)C(=O)NC1CC1CCS(=NC#N)CC1 (stereo not drawn) | 103 to 105
73 | CCCCCCCCCCCCP(=O)(O)CCCNC(=O)OCc1ccccc1 | 115 to 116
74 | COC(=O)C=C1CN=C(c2ccccc2F)c2cc(Cl)ccc2N1 | 158 to 160
75 | CCc1cc2[nH]c(=O)c(=O)[nH]c2c([N+](=O)[O-])c1Cl | > 330
76 | COc1cc(CC#N)nc(N)n1 | 95 to 98
77 | CCCCCCCc1ccc(OC(=O)c2ccc3c(c2N)C(=O)c2ccc(C)c([N+](=O)[O-])c2C3=O)cc1 | 257 to 259
78 | Oc1ccc(-n2nnnc2C2CC2)cc1 | 184
79 | COC[C@H]1CC[C@H](c2ccc(I)cc2)CC1 | 40.3 to 42.3
80 | O=C1CCC(=O)N1Cc1nc2sc3c(c2c(-c2ccc(Cl)cc2)c1Cl)CCNC3 | 230 to 231
81 | CCN1C(=O)N(c2ccc([N+](=O)[O-])c(C(F)(F)F)c2)C(=O)C1(C)C | 110 to 111
82 | CN(C)C1CC2=CNC=C3C=C(C=O)OCC1=C32 (stereo not drawn) | 175 to 176

Row | Structure (SMILES) | melting point [°C]
83 | CNC(=O)c1cc(Cl)cc(C)c1N | 141 to 143
84 | COc1cccc(CS[C@H]2C[C@@H](C(N)=O)N(C)C2)c1 | 113 to 114
85 | O=C1CN(Cc2cccc(I)c2)S(=O)(=O)N1 | 101 to 103
86 | COc1cc(CN2N=C(c3ccc(OC)c(OC)c3)[C@@H]3CCCC[C@@H]3C2=O)cc(OC)c1 (relative stereo) | 114 to 117
87 | CC(=O)N1Cc2c(-c3noc(C4CC4)n3)ncn2-c2cccc(F)c21 | 208 to 210
88 | Oc1cc(O)nc(C(F)(F)F)n1 | 255 to 256
89 | O=[N+]([O-])c1ccc(N2CCSCC2)cc1 | 142 to 144
90 | CC12CC(=O)NN=C1c1ccc(N)cc1C2 (stereo not drawn) | 222
91 | Cc1c(C(F)(F)F)n[nH]c1-c1ccc(Cl)cc1 | 139
92 | Nc1c(I)cc(Cl)cc1[N+](=O)[O-] | 134 to 135
93 | CN(C(=O)OC(C)(C)C)C1CCN(CC2(C)Cn3cc([N+](=O)[O-])nc3O2)CC1 (stereo not drawn) | 199 to 201
94 | Oc1cn(-c2c(Cl)cc(C(F)(F)F)cc2Cl)nc1C(F)(F)F | 186 to 188
95 | COC(=O)NN=C1C(=O)Nc2ccc(C3=NNC(=O)SC3C)cc21 (stereo not drawn) | 201
96 | Cc1ccc(C(=O)CBr)o1 | 60 to 63
97 | COC(=O)c1c(C)c(O)cc(OC)c1Cl | 92
98 | O=C1c2c(O)ccc(O)c2-c2nn(CCCNCCO)c3ccc(NCCNCCO)c1c23 | 159 to 163
99 | CC1C(S(=O)(=O)c2ccccc2)CCCC12OCCO2 (stereo not drawn) | 76 to 77
100 | Cc1cc(C)c(Nc2nc(C)nc(OC3CCOC3)c2C)c(C)c1 (stereo not drawn) | 126 to 128
101 | COc1ccc(CCBr)cc1OC | 72 to 73
102 | CSc1ncc(C(C)O)c(N)n1 (stereo not drawn) | 140 to 142
103 | O=C1CCCc2ccc(OCCCCN3CCN(c4cccc5c4OCC5)CC3)nc2N1 | 176 to 177
